Test results taken from patent publication US5098900A, “3(2H)pyridazinone, process for its preparation and anti-allergic agent containing it” (Nissan Chemical Industries Ltd., priority 1984, dated 1992).
Like-named read-outs stand apart in the source and are kept apart here.

What was measured:
LTC4 = LTC4 antagonism in isolated guinea-pig trachea (LTC4-induced contraction); type: cell-based; details: 5 min; for inhibition at 10 µg/mL: Cavia porcellus, read-out: LTC4 antagonism
Method: (ii) LTC4 and LTD4 antagonisms in guinea-pig trachea
Antagonism for LTC4 and LTD4 were determined in isolated guinea-pig trachea prepared as spiral strip. 10 Tracheal preparations were suspended under 1 g tension in […] and they were incubated for 1 hr prior to use. Contractile responses to LTC4 (2×10^-8 g/ml) and LTD4 (2×10^-8 g/ml) were obtained after the maximal response to histamine (10^-4 M). Test compounds dissolved in 100% dimethyl sulfoxide were added to the organ baths (final concentration of 10^-5 g/ml) 5 min prior to LTC4 and LTD4 addition, and then contractile responses to LTC4 and LTD4 were compared with those of control which was obtained from a paired trachea in the absence of test compounds. LTC4 - and LTD4 -induced contractions were expressed as a percentage of the maximal response to histamine. The antagonism was determined as follows: Antagonism (%)=(1.0-% contraction in test/% contraction in control)×100

SRS-A = SRS-A antagonism in guinea-pig ileum (SRS-A-induced contraction); type: cell-based; details: 1 min, test compound 5×10^-7 g/ml, isolated guinea-pig ileum; for inhibition at 0.5 µg/mL: Cavia porcellus
Method: (i) SRS-A antagonism in quinea-pig ileum
SRS-A antagonism was determined against the contraction induced by SRS-A in isolated guinea-pig ileum. The SRS-A was prepared in accordance with the method of Brocklehurst (J. Physiol., 151, 416, 1960) and Kohno and Parker (J. Immunol., 125, 446, 1980). Adult male guinea-pigs (200-250 g) were sensitized with chick egg albumin (EA), 100 mg subcutaneously and 100 mg intraperitoneally. Three weeks later the animals were killed by a blow on the head and lungs were perfused free of blood with Tyrode solution passed through the right ventricle. Isolated lungs were chopped into pieces (1 mm^3) by a scissors in Tyrode solution and filtrated with gauze, and then 1.0-1.3 g of chopped lung fragments were distributed into individual tubes (9.7 ml of Tyrode solution/tube). EA solution (0.3 ml) at a 3×10^-4 g/ml final concentration was added to the tubes and incubated for 20 min at 37° C., and then the supernatant was used for the SRS-A antagonism.
Assay for SRS-A antagonism was performed as follows: Ileum preparations isolated from male guinea-pig (300-400 g) were suspended under 0.5 g tension in organ baths (5 ml) containing Tyrode solution maintained at 30° C. and gassed with 95% O2 +5% CO2. After the repeated responses to histamine (10^-7 g/ml) was established, the contractile response to SRS-A (0.5 ml) was carried out in the presence of 10^-6 M atropine and 10^-6 M pyrilamine. Test compounds dissolved in 100% dimethyl sulfoxide were added to the organ baths (final concentration of 5×10^-7 g/ml) 1 min prior to the SRS-A addition, and SRS-A-induced contractions were compared with those of control (SRS-A-induced contraction before the treatment). The SRS-A antagonism (%) =[1.0 - (SRS-A-induced contraction in test compound)/control]×100

[1] = test system: antigen-induced anaphylactic bronchoconstriction; test: Effect on anaphylactic bronchoconstriction in passively sensitized guinea-pig; type: in vivo; details: 2 mg/kg, i.v.
Method: (iii) Effect on anaphylactic bronchoconstriction in passively sensitized guinea-pig
Male guinea-pigs (350-450 g) were passively sensitized with intravenous (i.v.) injection of 0.125 ml rabbit anti-EA serum (Cappel Laboratories) 1 day preceding the experiment. […] The right jugular vein was cannulated for the administration of the all agents and trachea was cannulated to record total pulmonary resistance. Guinea-pigs were artificially ventilated by a small animal respirator (Shinano, Model SN-480-7) set at a stroke volume of 4-5 ml and a rate of 50 breaths per min. […] The increase in air overflow volume was expressed as a percentage of the maximum bronchoconstriction obtained by clamping off the trachea. Following surgical preparation, the animals were pretreated with indomethacin (1.0 mg/kg, 10 min), pyrilamine (2 mg/kg, 6 min) and propranolol (0.1 mg/kg, 5 min) prior to the EA challenge (0.1 or 10 mg/kg). All test compounds, 2 mg/kg in 3% Tween 80 or 3% PEG-400, were administered 1 min before the EA challenge. Inhibition (%) of bronchoconstriction was determined as follows Inhibition (%)=(1.0% -maximum bronchoconstriction in test/% maximum bronchoconstriction in control) ×100.
In the Table, the dose of EA was 10 mg/kg, and each compound was dissolved or suspended in 3% Tween 80.
In the Table, the dose of EA was 0.1 mg/kg.
*: PEG represents polyethylene glycol400.

LTD4 [2] = test: Effect on bronchoconstriction induced by intravenous administration of LTD4; type: in vivo, guinea-pig; details: 2 mg/kg, i.v., in Tween 80; LTD4 2 μg/kg i.v.
Method: (iv) Effect on bronchoconstriction induced by intravenous (i.v.) administration of LTD4
Bronchoconstrictions induced by i.v. administration of LTD4 in guinea-pigs (350-450 g) were measured as described in anaphylactic bronchoconstriction. Guinea-pigs were anaesthetized with urethane (1.5 g/kg) and the trachea was cannulated to record total pulmonary resistance. The right jugular vein was cannulated for the administration of the all agents. The guinea-pigs were artificially ventilated by a small respirator set at a stroke volume of 5 ml and a rate of 50 breaths per min. LTD4 (2 μg/kg)-induced bronchoconstriction was shown by the increase in air overflow volume. After the response to histamine (5 μg/kg) was checked, the first response to LTD4 was obtain-d as control. […] Inhibition (%) of the bronchoconstriction was determined as follows: Inhibition (%) =(1.0 -peak value in the second response/peak value in the first response)×100.

LTD4 [3] = test: LTD4 antagonism in isolated guinea-pig trachea (LTD4-induced contraction); type: cell-based; details: Cavia porcellus, 5 min, test compound 10^-5 g/ml, LTD4 2×10^-8 g/ml
How it was run: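 Spiral strips of isolated guinea-pig trachea were held at 1 g tension in organ baths and incubated for 1 hr. After a maximal histamine (10^-4 M) response, test compounds in 100% dimethyl sulfoxide were added 5 min before LTD4 (2×10^-8 g/ml). Contraction, as percent of histamine maximum, was compared with a paired untreated control trachea to give antagonism (%).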

ddY strain male mice = test: Acute toxicity test, method-(1), oral administration; type: in vivo; details: 300 mg/kg, P.O., 7 days after administration
Method: The lethal ratio was determined in ddY strain male mice (4 weeks old) at 7 days after the oral administration of test compounds.

[4] = test compound 10^-5 g/ml, LTC4 2×10^-8 g/ml, guinea-pig trachea

CC(C)c1ccc(CNc2cnn(C(C)(C)C)c(=O)c2Cl)cc1 [Compound No. 5]
inhibition at 10 µg/mL (LTC4; [4]): 67%
inhibition at 0.5 µg/mL (SRS-A): 74%

CCCOc1ccc(CNc2cnn(C(C)(C)C)c(=O)c2Cl)cc1 [compound 11]
inhibition at 10 µg/mL (LTC4; [4]): 25%
Inhibition of anaphylactic bronchoconstriction ([1]; EA 10 mg/kg, 3% Tween 80): 21%
inhibition at 0.5 µg/mL (SRS-A): 74%

Cc1ccc(CNc2cnn(C(C)(C)C)c(=O)c2Cl)cc1 [Compound No. 3]
inhibition at 10 µg/mL (LTC4; [4]): 42%
Inhibition of LTD4-induced bronchoconstriction (LTD4 [2]): 60.6%
inhibition at 10 µg/mL (LTD4 [3]): 50%
inhibition at 0.5 µg/mL (SRS-A): 64%

CCN(CC)Cc1ccc(CNc2cnn(C(C)(C)C)c(=O)c2Cl)cc1 [compound 32]
inhibition at 10 µg/mL (LTC4; [4]): 20%
inhibition at 0.5 µg/mL (SRS-A): 18%

COc1ccc(CNc2cnn(C(C)(C)C)c(=O)c2Cl)cc1C [Compound No. 12]
inhibition at 10 µg/mL (LTC4; [4]): 67%
inhibition at 0.5 µg/mL (SRS-A): 73%

CCOc1ccc(CNc2cnn(C(C)(C)C)c(=O)c2Cl)cc1 [Compound No. 10]
inhibition at 10 µg/mL (LTC4; [4]): 50%
Lethal ratio (ddY strain male mice): 0/3
Inhibition of anaphylactic bronchoconstriction ([1]; EA 10 mg/kg, 3% Tween 80): 31%
inhibition at 0.5 µg/mL (SRS-A): 40%

CCc1ccc(CNc2cnn(C(C)(C)C)c(=O)c2Cl)cc1 [Compound No. 4]
inhibition at 10 µg/mL (LTC4; [4]): 55%
Lethal ratio (ddY strain male mice): 0/3
inhibition at 0.5 µg/mL (SRS-A): 73%

COc1ccc(CNc2cnn(C(C)(C)C)c(=O)c2Cl)cc1OC [Compound No. 16]
inhibition at 10 µg/mL (LTC4; [4]): 96%
inhibition at 0.5 µg/mL (SRS-A): 55%

CC(C)(C)n1ncc(NCc2ccc(CN3CCOCC3)cc2)c(Cl)c1=O [compound 33]
inhibition at 10 µg/mL (LTC4; [4]): 17%
inhibition at 0.5 µg/mL (SRS-A): 41%

CCCc1c(OCC(O)COc2ccc3c(=O)cc(C(=O)O)oc3c2CCC)ccc(C(C)=O)c1O (centres unmarked) [FPL-55712, reference compound]
inhibition at 10 µg/mL (LTC4): 100%
Inhibition of LTD4-induced bronchoconstriction (LTD4 [2]): 100%
Inhibition of anaphylactic bronchoconstriction ([1]; EA 0.1 mg/kg, Tween 80): 60%
Inhibition of anaphylactic bronchoconstriction ([1]; EA 10 mg/kg, 3% Tween 80): 27%
inhibition at 10 µg/mL (LTD4 [3]): 88%
inhibition at 0.5 µg/mL (SRS-A): 88%

CC(C)(C)n1ncc(NCc2ccc3c(c2)OCO3)c(Cl)c1=O [compound 18]
inhibition at 0.5 µg/mL (SRS-A): 74%

CN(C)c1ccc(CNc2cnn(C(C)(C)C)c(=O)c2Cl)cc1.Cl [Compound No. 44, 4-Chloro-5-(4-dimethylaminobenzylamino)-2-t-butyl-3-(2H)pyridazinone hydrochloride]
Inhibition of LTD4-induced bronchoconstriction (LTD4 [2]): 72.5%
Inhibition of anaphylactic bronchoconstriction ([1]; EA 10 mg/kg, 3% Tween 80): 72%
SRS-A antagonism (SRS-A): 55%

CC(C)(C)n1ncc(NCc2ccc(Cl)cc2)c(Cl)c1=O [compound 22]
inhibition at 10 µg/mL (LTC4; [4]): 20%
Inhibition of anaphylactic bronchoconstriction ([1]; EA 10 mg/kg, 3% Tween 80): 23%
inhibition at 0.5 µg/mL (SRS-A): 76%

COc1ccc(CNc2cnn(C(C)(C)C)c(=O)c2Cl)cc1 [Compound No. 9]
Inhibition of LTD4-induced bronchoconstriction (LTD4 [2]): 38%
Inhibition of anaphylactic bronchoconstriction ([1]; EA 10 mg/kg, 3% Tween 80): 35%
inhibition at 0.5 µg/mL (SRS-A): 72%

CCN1CCN(Cc2ccc(CNc3cnn(C(C)(C)C)c(=O)c3Cl)cc2)CC1 [compound 35]
LTC4 antagonism (LTC4; [4]): 37%
inhibition at 0.5 µg/mL (SRS-A): 10%

CC(C)(C)n1ncc(NCc2ccc(N3CCOCC3)cc2)c(Cl)c1=O [compound 30]
inhibition at 10 µg/mL (LTC4; [4]): 13%
inhibition at 0.5 µg/mL (SRS-A): 53%

CCOC(=O)c1ccc(CNc2cnn(C(C)(C)C)c(=O)c2Cl)cc1 [Compound No. 52]
Inhibition of anaphylactic bronchoconstriction ([1]; EA 10 mg/kg, 3% Tween 80): 30%
inhibition at 0.5 µg/mL (SRS-A): 72%

CC(C)(C)n1ncc(NCc2ccccc2)c(Cl)c1=O [Compound No. 1]
Inhibition of LTD4-induced bronchoconstriction (LTD4 [2]): 23%
inhibition at 0.5 µg/mL (SRS-A): 14%

CSc1ccc(CNc2cnn(C(C)(C)C)c(=O)c2Cl)cc1 [compound 21]
inhibition at 10 µg/mL (LTC4; [4]): 36%
inhibition at 0.5 µg/mL (SRS-A): 77%

COCCNC(=O)c1ccc(CNc2cnn(C(C)(C)C)c(=O)c2Cl)cc1 [compound 55]
inhibition at 10 µg/mL (LTC4; [4]): 14%
inhibition at 0.5 µg/mL (SRS-A): 12%

Cc1cccc(CNc2cnn(C(C)(C)C)c(=O)c2Cl)c1 [Compound No. 2]
inhibition at 10 µg/mL (LTC4; [4]): 84%
Inhibition of anaphylactic bronchoconstriction ([1]; EA 10 mg/kg, 3% Tween 80): 21%
inhibition at 0.5 µg/mL (SRS-A): 47%

CN1CCN(C(=O)c2ccc(CNc3cnn(C(C)(C)C)c(=O)c3Cl)cc2)CC1 [compound 41]
inhibition at 0.5 µg/mL (SRS-A): 15%
